# Results: US20140336182A1, “Aurora Kinase Modulators and Method of Use” (Amgen Inc., priority 2013, published 2014)
# System: HeLa cells
# Test: HeLa cell 24 hr ploidy assay (DNA content)
# Type: cell-based
# Conditions: Homo sapiens, HeLa, HeLa cells, 4N ploidy, average, read-out: 24h_4NPloidy EC50_IP (uM Avg)
# Method in brief: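 HeLa cells (1×10^4/well, MEM+10% FBS) cultured 24 h, treated with serially diluted compounds (0.25% DMSO final), then fixed, permeabilized and stained with Hoechst 33342 (0.5 ug/ml). Imaging quantified % 4N and >4N cells; EC50 IP and EC50 transit derived from dose curves.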
row,SMILES,EC50
1,COc1cnc2c(Oc3ccc(Nc4nnc(-c5ncco5)c5ccccc45)cc3)ccnc2c1 [compound 200],0.314 µM
2,"COc1cnc2c(Oc3ccc(Nc4nnc(-c5ccc(Cl)c(Cl)c5)c5ccccc45)cc3)ccnc2c1 [compound 201, 4-(3,4-dichlorophenyl)-N-(4-((7-(methyloxy)-1,5-naphthyridin-4-yl)oxy)phenyl)-1-phthalazinamine]",0.022 µM
3,"Cn1cncc1-c1cc2nccc(Oc3ccc(Nc4nnc(-c5ccccc5)c5ccccc45)cc3)c2s1 [compound 202, N-(4-((2-(1-methyl-1H-imidazol-5-yl)thieno[3,2-b]pyridin-7-yl)oxy)phenyl)-4-phenyl-1-phthalazinamine]",0.011 µM
4,Cc1ccc(-c2nnc(Nc3ccc(Oc4ccnc5cc(-c6cncn6C)sc45)cc3)c3ccccc23)cc1 [compound 203],0.002 µM
5,"COc1cnc2c(Oc3ccc(Nc4nnc(-c5ccc6c(ccn6C)c5)c5ccccc45)cc3)ccnc2c1 [compound 204, 4-(1-methyl-1H-indol-5-yl)-N-(4-((7-(methyloxy)-1,5-naphthyridin-4-yl)oxy)phenyl)-1-phthalazinamine]",0.021 µM
6,"CCc1cc(-c2ccc(C)s2)nnc1Nc1ccc(Oc2ccnc3cc(OC)cnc23)cc1 [compound 205, 4-ethyl-N-(4-((7-(methyloxy)-1,5-naphthyridin-4-yl)oxy)phenyl)-6-(5-methyl-2-thienyl)-3-pyridazinamine]",0.074 µM
7,COc1cnc2c(Oc3ccc(Nc4nnc(-c5ccc6cc[nH]c6c5)c5ccccc45)cc3)ccnc2c1 [compound 206],0.002 µM
8,N#Cc1ccc2c(Sc3ccc(Nc4nnc(-c5ccccc5)c5ccccc45)cc3)ccnc2c1 [compound 208],0.023 µM
9,COc1cnc2c(Oc3ccc(Nc4nnc(-c5ccc(C)c(N)c5)c5ccccc45)cc3)ccnc2c1 [compound 209],0.004 µM
10,CCc1cc(-c2cc(C)cs2)nnc1Nc1ccc(Oc2ccnc3cc(OC)cnc23)cc1 [compound 210],0.056 µM
11,COc1cc2nccc(Oc3ccc(Nc4nnc(-c5ccc(C)cc5)c5ccccc45)cc3)c2cc1C(N)=O [compound 211],0.002 µM
12,COc1cnc2c(Oc3ccc(Nc4nnc(-c5cn[nH]c5)c5ccccc45)cc3)ccnc2c1 [compound 212],0.501 µM
13,COc1cnc2c(Oc3ccc(Nc4nnc(-c5ccc(OC)c(C)c5)c5ccccc45)cc3)ccnc2c1 [compound 213],0.044 µM
14,COc1cnc2c(Oc3ccc(Nc4nnc(-c5ccc(F)c(F)c5)c5ccccc45)cc3)ccnc2c1 [compound 214],0.033 µM
15,"COc1cnc2c(Oc3ccc(Nc4nnc(-c5cncnc5)c5ccccc45)cc3)ccnc2c1 [compound 215, N-(4-((7-(methyloxy)-1,5-naphthyridin-4-yl)oxy)phenyl)-4-(5-pyrimidinyl)-1-phthalazinamine]",> 1.2 µM
16,COc1cnc2c(Oc3ccc(Nc4nnc(-c5cnn(C)c5)c5ccccc45)cc3)ccnc2c1 [compound 216],0.074 µM
17,N#Cc1ccc(-c2nnc(Nc3ccc(Oc4ccnc5cc(C#N)ccc45)cc3)c3ccccc23)cc1 [compound 217],0.369 µM
18,"COc1cnc2c(Oc3ccc(Nc4nnc(-c5ccccc5)c5ccsc45)cc3)ccnc2c1 [compound 218, N-(4-((7-(methyloxy)-1,5-naphthyridin-4-yl)oxy)phenyl)-4-phenylthieno[2,3-d]pyridazin-7-amine]",0.061 µM
19,COc1cnc2c(Oc3ccc(Nc4nnc(-c5cccc(Cl)c5)c5ccccc45)cc3)ccnc2c1 [compound 219],0.031 µM

row,SMILES,EC50
1,"COc1cnc2c(Oc3ccc(Nc4nnc(-c5ccc(F)cc5)c5ccccc45)cc3)ccnc2c1 [compound 220, 4-(4-fluorophenyl)-N-(4-((7-(methyloxy)-1,5-naphthyridin-4-yl)oxy)phenyl)-1-phthalazinamine]",0.036 µM
2,CCc1ccc(-c2nnc(Nc3ccc(Oc4ccnc5cc(OC)cnc45)cc3)c3ccccc23)cc1 [compound 221],0.015 µM
3,"COc1cnc2c(Oc3ccc(Nc4nnc(-c5ccc(Cl)cc5)c5ccccc45)cn3)ccnc2c1 [compound 222, 4-(4-chlorophenyl)-N-(6-((7-(methyloxy)-1,5-naphthyridin-4-yl)oxy)-3-pyridinyl)-1-phthalazinamine]",0.026 µM
4,COc1cnc2c(Oc3ccc(Nc4nnc(-c5ccnn5C)c5ccccc45)cc3)ccnc2c1 [compound 223],> 1.2 µM
5,COc1cnc2c(Oc3ccc(Nc4nnc(-c5ccc(C)c(Cl)c5)c5ccccc45)cc3)ccnc2c1 [compound 224],0.007 µM
6,COc1cc2nccc(Oc3ccc(Nc4nnc(-c5ccccc5)c5ccccc45)cc3)c2cc1C(N)=O [compound 225],0.004 µM
7,COc1cnc2c(Oc3ccc(Nc4nnc(-c5cccc(C(=O)N(C)C)c5)c5ccccc45)cc3)ccnc2c1 [compound 226],> 1.2 µM
8,COc1cnc2c(Oc3ccc(Nc4nnc(-c5ccc(OC)c(F)c5)c5ccccc45)cc3)ccnc2c1 [compound 227],0.061 µM
9,"COc1cnc2c(Oc3ccc(Nc4nnc(-c5ccc(Cl)cn5)c5ccccc45)cc3)ccnc2c1 [compound 228, 4-(5-chloro-2-pyridinyl)-N-(4-((7-(methyloxy)-1,5-naphthyridin-4-yl)oxy)phenyl)-1-phthalazinamine]",0.035 µM
10,CCc1ccc(-c2nnc(Nc3ccc(Oc4ccnc5cc(OC)cnc45)cc3)c3ccccc23)s1 [compound 229],0.026 µM
11,N#Cc1ccc2c(Oc3ccc(Nc4nnc(-c5ccc(Cl)c(C#N)c5)c5ccccc45)cc3)ccnc2c1 [compound 231],0.067 µM
12,COc1cnc2c(Sc3ccc(Nc4nnc(-c5ccc(Cl)cc5)c5ccccc45)cc3)ccnc2c1 [compound 232],0.004 µM
13,COc1cnc2c(Oc3ccc(Nc4nnc(-c5ccc(Cl)cc5C)c5ccccc45)cc3)ccnc2c1 [compound 233],0.6 µM
14,COc1cnc2c(Oc3ccc(Nc4nnc(-c5ccccc5)cc4C(C)C)cc3)ccnc2c1 [compound 234],0.196 µM
15,"COc1cnc2c(Oc3ccc(Nc4nnc(-c5ccc(Cl)nc5)c5ccccc45)cc3)ccnc2c1 [compound 235, 4-(6-chloro-3-pyridinyl)-N-(4-((7-(methyloxy)-1,5-naphthyridin-4-yl)oxy)phenyl)-1-phthalazinamine]",0.058 µM
16,COc1cnc2c(Oc3ccc(Nc4nnc(-c5ccc(Cl)c(C)c5)c5ccccc45)cc3)ccnc2c1 [compound 236],0.011 µM
17,COc1cnc2c(Oc3ccc(Nc4nnc(-c5ccc(SC)cc5)c5ccccc45)cc3)ccnc2c1 [compound 237],0.03 µM
18,COc1ccc2nccc(Oc3ccc(Nc4nnc(-c5ccccc5)c5ccccc45)cc3)c2c1 [compound 238],0.053 µM
19,COc1ccc2nccc(Oc3ccc(Nc4nnc(-c5ccc(Cl)cc5)c5ccccc45)cc3)c2c1 [compound 239],0.001 µM

# Now from value to molecule:
row,EC50,SMILES
1,0.01 µM,COc1cccc(-c2nnc(Nc3ccc(Oc4ccnc5cc(-c6cncn6C)sc45)cc3)c3ccccc23)n1 [compound 240]
2,0.101 µM,Clc1ccc(-c2nnc(Nc3ccc(Oc4ccnc5[nH]ccc45)cc3)c3ccccc23)cc1 [compound 241]
3,0.019 µM,N#Cc1ccc2c(Oc3ccc(Nc4nnc(-c5ccc(Cl)cc5)c5ccccc45)cc3)ccnc2c1 [compound 242]
4,0.006 µM,COc1cnc2c(Oc3ccc(Nc4nnc(-c5ccc(C)c(F)c5)c5ccccc45)cc3)ccnc2c1 [compound 243]
5,0.381 µM,Brc1cnc2c(Oc3ccc(Nc4nnc(-c5ccccc5)c5ccccc45)cc3)ccnc2c1 [compound 245]
6,0.03 µM,"COc1cnc2c(Oc3ccc(Nc4nnc(-c5ccc(F)c(C)c5)c5ccccc45)cc3)ccnc2c1 [compound 246, 4-(4-fluoro-3-methylphenyl)-N-(4-((7-(methyloxy)-1,5-naphthyridin-4-yl)oxy)phenyl)-1-phthalazinamine]"
7,0.112 µM,COc1cnc2c(N(C)c3ccc(Nc4nnc(-c5cc(C)cs5)c5ccccc45)cc3)ccnc2c1 [compound 247]
8,0.022 µM,"N#Cc1ccc2c(Sc3ccc(Nc4nnc(-c5ccc(Cl)cc5)c5ccccc45)cc3)ccnc2c1 [compound 248, 4-((4-((4-(4-chlorophenyl)-1-phthalazinyl)amino)phenyl)thio)-7-quinolinecarbonitrile]"
9,0.008 µM,Cn1cncc1-c1cc2nccc(Oc3ccc(Nc4nnc(-c5ccc(Cl)cc5)c5ccccc45)cc3)c2s1 [compound 249]
10,0.031 µM,"Clc1ccc(-c2nnc(Nc3ccc(Oc4ccnc5ccsc45)cc3)c3ccccc23)cc1 [compound 250, 4-(4-chlorophenyl)-N-(4-(thieno[3,2-b]pyridin-7-yloxy)phenyl)-1-phthalazinamine]"
11,0.227 µM,c1ccc(-c2nnc(Nc3ccc(Oc4ccnc5ccsc45)cc3)c3ccccc23)cc1 [compound 251]
12,0.027 µM,Cc1ccc(-c2nnc(Nc3ccc(Oc4ccnc5ccsc45)cc3)c3ccccc23)cc1 [compound 252]
13,0.835 µM,COc1cnc2c(Oc3ccc(Nc4nnc(-c5ccc(Cl)cc5OC)c5ccccc45)cc3)ccnc2c1 [compound 253]
14,> 1.2 µM,COc1cc2nncc(Oc3ccc(Nc4nnc(-c5ccccc5)c5ccccc45)cc3)c2cc1OC [compound 254]
15,0.014 µM,Cc1ccc(-c2nnc(Nc3ccc(Oc4ccnc5cc(-c6cncn6C)sc45)cc3)c3ccccc23)nc1 [compound 255]
16,0.049 µM,CCc1cc(-c2ccc(Cl)cc2)nnc1Nc1ccc(Oc2ccnc3cc(OC)cnc23)cc1 [compound 256]
17,> 1.2 µM,c1ccc(-c2nnc(Nc3ccc(Oc4ncnc5nc[nH]c45)cc3)c3ccccc23)cc1 [compound 257]
18,0.004 µM,COc1cnc2c(Oc3ccc(Nc4nnc(-c5cccc(N(C)C)c5)c5ccccc45)cc3)ccnc2c1 [compound 258]
19,0.051 µM,O=C(c1cc2nccc(Oc3ccc(Nc4nnc(-c5ccc(Cl)cc5)c5ccccc45)cc3)c2s1)N1CCOCC1 [compound 259]
20,0.002 µM,COc1cnc2c(Oc3ccc(Nc4nnc(-c5cc(C)c(C)s5)c5ccccc45)cc3)ccnc2c1 [compound 260]
21,> 1.2 µM,COc1cnc2c(Oc3ccc(Nc4nnc(-c5c(C)nn(C)c5C)c5ccccc45)cc3)ccnc2c1 [compound 261]
